Test results reported in patent US7855200B2, “Method for treatment of gastric ulcers and ulcers induced by aspirin” (Council of Scientific and Industrial Research, priority 2006, dated 2010).

Key:
Format in all cases: in vivo, albino rats
[1] = test system: acetyl salicylic acid induced gastric lesions; assay: Acetyl salicylic acid (aspirin) induced gastric ulcer; set-up: Ulcer index Mean(SE): scale not given here; conditions: rats, 25 mg/kg per orally daily for five days, aspirin 200 mg/kg; for inhibition at 25 mg/kg: Rattus norvegicus, po, 120 h
Procedure: Stress induced gastric ulceration The commercially available drug ranitidine (sigma), Omeprazole (sigma) and sucralfate (Merck) were used as reference standard in experimental models. The Tween-80 (SD fine chemicals) was used as vehicle for the administration of the drug, which is used as control. Antiulcer activity of the compounds under taken was studied. The animals were divided into 20 groups of 6 animals each. Group 1 received the vehicle Tween 80 (1%, 1 ml) which served as the control. Group 2 received ranitidine at a dose of 50-mg/kg body weight, which served as standard for comparison. Group 3 to 20 at a dose of 25 mg/kg body weight. Rats were administered per orally with a daily dose of the compounds and the drug ranitidine for a period of five days and then fasted for 24 hours. The […] acetyl salicylic acid (aspirin) at a dose of 200 mg/kg body weight was administered as a suspension in tween-80 (1%), 30 min after the drug administration each day. All drugs were administered orally on the 6th day after the last administration of the drugs and the ulcer inducing agent aspirin, the rats were killed by cervical dislocation and their stomach were opened along the greater curvature and washed with luke warm saline and examined under a dissecting microscope. The ulcer index was calculated for each stomach. […] The antiulcer activity of the compounds was studied. The animals were divided into 19 groups of 6 animals each. Group 1 received the vehicle Tween 80 (1%, 1 ml) which served as the control. Group 2 received ranitidine at a dose of 50-mg/kg-body weight, which served as standard for comparison. […] Rats were administered per orally with a daily dose of the compounds and the drug ranitidine to respective groups for a period of five days and then fasted for 24 hours. The […] acetyl salicylic acid (aspirin) at a dose of 200 mg/kg body weight was administered as a suspension in tween-80 (1%), 30 min after the drug administration each day. All drugs were administered orally on ht […] day after the last administration of the drugs and the ulcer inducing agent aspirin, the rats were killed by cervical dislocation and their stomach were opened along the greater curvature and washed with luke warm saline and examined under a dissecting microscope.

Pylorus ligated rats = assay: Pylorus ligated ulcers; conditions: 25 mg/kg, 4 hours after pylorus ligation; for inhibition at 25 mg/kg: Rattus norvegicus
From the text: (§1) The compounds taken under study for antigastric ulcer screening by four different models were selected using experimental albino rats: • 1. Aspirin induced gastric ulceration • 2. Pylorus ligated gastric ulceration • 3. Ethanol induced gastric ulceration • 4. Stress induced gastric ulceration
(§2) The commercially available drug ranitidine (sigma), Omeprazole (sigma) and sucralfate (Merck) were used as reference standard in experimental models. The Tween-80 (SD fine chemicals) was used as vehicle for the administration of the drug, which is used as control.
The animals were divided into 19 groups of 6 animals each. Animals were deprived of food for 48 hours but had free access to water. Group 1 received the vehicle Tween 80 (1%, 1 ml) which served as the control. Group 2 received ranitidine at a dose of 50-mg/kg-body weight, which served as standard for comparison. […] After one hour of administration of drug the stomach was ligated at the pylorus under ether anesthesia. 4 hours after pylorus ligation, the animals were sacrificed and the contents drained and centrifuges at 5000 rpm for 10 minutes. Aliquots of supernatant were used for determination of total acid by titrating with 0.01N NaOH using topfers reagent and phenolphthalein indicators. 4.
The animals were divided into 7 groups of 6 animals each. Animals were deprived of food for 48 hours but had free access to water. Group 1 received the vehicle Tween 80 (1%, 1 ml) which served as the control. Group 2 received ranitidine at a dose of 50-mg/kg-body weight, which served as standard for comparison. Group 3 to 7 received at a dose of 50, 25, 15, 10 and 5 mg/kg body weight respectively. After one hour of administration of drug the stomach was ligated at the pylorus under ether anesthesia. 4 hours after pylorus ligation, the animals were sacrificed and the contents drained and centrifuges at 5000 rpm for 10 minutes. Aliquots of supernatant were used for determination of total acid by titrating with 0.01N NaOH using topfers reagent and phenolphthalein indicators.

[2] = test system: ethanol induced gastric ulcers; assay: Ethanol induced ulcers; conditions: rats, 25 mg/kg, ethanol challenge; for Acidity Total mEg / Gastric content / pH: 4 hours after pylorus ligation; for inhibition at 25 mg/kg: Rattus norvegicus
Procedure: Stress induced gastric ulceration The commercially available drug ranitidine (sigma), Omeprazole (sigma) and sucralfate (Merck) were used as reference standard in experimental models. The Tween-80 (SD fine chemicals) was used as vehicle for the administration of the drug, which is used as control. The animals were divided into 22 groups of 6 animals each. Animals were deprived of food for 48 hours but had free access to water. Group 1 received the vehicle Tween 80 (1%, 1 ml) which served as the control. Group 2 received ranitidine at a dose of 50-mg/kg-body weight, which served as standard for comparison. Group 3 to received Omeprazole at a dose of 30-mg/kg body weight, which served as standard for comparison. Group 4 received sucralfate at a dose of 400-mg/kg body weight, which served as standard for comparison. Group 5 to 22 received at a dose of 25 mg/kg body weight. Lesions were induced 1 hour after ethanol challenge animals. The stomach was ligated at the pylorus under ether anesthesia. 4 hours after pylorus ligation, the animals were sacrificed and the contents drained and centrifuges at 5000 rpm for 10 minutes. Aliquots of supernatant were used for determination of total acid by titrating with 0.01N NaOH using topfers reagent and phenolphthalein indicators. […] The animals were divided into 9 groups of 6 animals each. Animals were deprived of food for 48 hours but had free access to water. Group 1 received the vehicle Tween 80 (1%, 1 ml) which served as the control. Group 2 received ranitidine at a dose of 50-mg/kg-body weight, which served as standard for comparison. Group 3 to received Omeprazole at a dose of 30-mg/kg body weight, which served as standard for comparison. Group 4 received sucralfate at a dose of 400-mg/kg body weight, which served as standard for comparison. […] Lesions were induced 1 hour after ethanol challenge animals. The stomach was ligated at the pylorus under ether anesthesia. 4 hours after pylorus ligation, the animals were sacrificed and the contents drained and centrifuges at 5000 rpm for 10 minutes. Aliquots of supernatant were used for determination of total acid by titrating with 0.01N NaOH using topfers reagent and phenolphthalein indicators.

[3] = test system: gastric ulceration in cold restraint rats; assay: Cold restraint (stress) induced ulcers; set-up: Ulcer index Mean(SE): scale not given here; conditions: rats, 25 mg/kg per orally, 4° C. for 2 hours; for inhibition at 25 mg/kg: Rattus norvegicus, po
From the text: as §1, §2
(§3) The antiulcer activity of the compounds was studied. The animals were divided into 21 groups of 7 animals each. Group 1 received the vehicle Tween 80 (1%, 1 ml) which served as the control. Group 2 received ranitidine at a dose of 50-mg/kg body weight, which served as standard for comparison. Group 3 to 21 at a dose of 25 mg/kg body weight. Animals were deprived of food 48 hours before the experiment. The water was allowed for free access. Rats were administered per orally with compounds and the drug ranitidine. The water was removed 1 hour before restraint and exposed to a temperature of 4° C. for 2 hours. Two hours after stress, the animals were sacrificed. The stressed animals were opened along the greater curvature and the severity of gastric ulcer was assessed in terms of mean ulcer index. 2.
as §3, with “8” for “21”, “6” for “7”, “50, 25, 15, 10 and 5” for “25”, “weight respectively.” for “weight.”, “index.” for “index. 2.”

[4] = test system: gastric ulcers induced by aspirin, ethanol, stress and pylorus ligation; assay: Antigastric ulcer screening by four different models (statements in words); conditions: summary statement
From the text: as §1, §2

| Compound | Inhibition % [1] | Ulcer index Mean(SE) [1] | Acidity Total mEg (Pylorus ligated rats) | Gastric content (Pylorus ligated rats) | Inhibition % (Pylorus ligated rats) | Ulcer index Mean(SE) (Pylorus ligated rats) | pH (Pylorus ligated rats) | Inhibition % [2] | Ulcer index Mean(SE) [2] | Acidity Total mEg [2] | Gastric content [2] | pH [2] | Inhibition % [3] | Ulcer index Mean(SE) [3] | antiulcer activity (in words) [4] | inhibition at 25 mg/kg [1] | inhibition at 25 mg/kg (Pylorus ligated rats) | inhibition at 25 mg/kg [2] | inhibition at 25 mg/kg [3] |
| --- | --- | --- | --- | --- | --- | --- | --- | --- | --- | --- | --- | --- | --- | --- | --- | --- | --- | --- | --- |
| COC(=O)C1OC(Oc2ccc3c(=O)cc(-c4ccccc4)oc3c2)C(O)C(O)C1O (stereo not shown) [CGL, 3,4,5-trihydroxy-6-(4-oxo-2-phenyl-4-H-chromen-7-yoloxy) tetrahydro-pyran-2-carboxylicacid methyl ester] | 70.46% | 13.33 | 40.00 (±1.15) m Eg | 4.83 (±0.44) | 60.17% | 19.96 (±6.66) | 3.08 (±0.22) | 62.50% | 25.00 (±2.88) | 39.00 (±1.52) mEg | 4.60 (±0.20) | 3.91 (±0.21) | 50.22% | 20.00 | very good activity |  |  |  |  |
| CN1CCN(CCCOc2cc(O)c3c(=O)cc(-c4ccccc4)oc3c2)CC1 [NMC-2, 5-Hydroxy-7-[3-(4-methyl-piperzin-1-yl]-propoxy)-2-phenyl hromen-4-one] | 48.30% | 23.33 | 36.26 (±2.80) m Eg | 1.90 (±0.62) | 43.47% | 28.33 (±0.10) | 4.25 (±0.14) | 57.50% | 28.33 (±3.33) | 30.26 (±0.42) mEg | 4.8 (±0.06) | 4.75 (±0.28) | 59.67% | 16.42 |  |  |  |  |  |
| O=c1cc(-c2ccccc2)oc2cc(OCCCCN3CCOCC3)cc(O)c12 [CHM-3, 5-Hydroxy-7-(4-morpholin-4-yl-butoxy)-2-phenyl chromen-4-one] |  | 21.77 | 44.10 (±2.20) m Eg | 2.24 (±0.22) |  | 27.46 (±3.00) | 3.41 (±0.16) |  | 42.50 (±3.81) | 37.10 (±0.60) mEg | 3.8 (±0.30) | 4.16 (±0.12) |  | 19.28 |  | 51.7% | 45.2% | 36.2% | 52.6% |
| CCCCCCCCCCCCCCCCC(=O)Oc1cc2oc(-c3ccccc3)cc(=O)c2c(O)c1OC [ORC-16, Heptadecanoic acid 5-hydroxy-6-methoxy-4-oxo-2-phenyl-4H-chromen-7-yl ester] |  | 39.13 | 42.20 (±2.20) m Eg | 1.92 (±0.20) |  | 43.33 (±2.10) | 3.66 (±0.20) |  | 51.50 (±1.05) | 43.20 (±3.86) mEg | 3.7 (±0.10) | 3.58 (±0.23) |  | 35.00 |  | 13.3% |  | 22.8% | 14% |
| O=c1cc(-c2ccccc2)oc2cc(O)c(O)c(O)c12 [Baicalein, 5,6,7-trihydroxy-2-phenyl-chromen-4-one] |  | 40.83 | 49.21 (±2.20) m Eg | 2.00 (±0.22) |  | 40.66 (±5.50) | 3.01 (±0.30) |  | 43.33 (±3.33) | 45.21 (±3.10) mEg | 3.5 (±0.20) | 3.33 (±0.10) |  | 29.28 |  | 9.51% | 18.9% | 20% | 3.52% |
